Target: T1, Accessory gene regulator protein A (Staphylococcus aureus, UniProt P0A0I7)
T1 sequence (P0A0I7 whole entry): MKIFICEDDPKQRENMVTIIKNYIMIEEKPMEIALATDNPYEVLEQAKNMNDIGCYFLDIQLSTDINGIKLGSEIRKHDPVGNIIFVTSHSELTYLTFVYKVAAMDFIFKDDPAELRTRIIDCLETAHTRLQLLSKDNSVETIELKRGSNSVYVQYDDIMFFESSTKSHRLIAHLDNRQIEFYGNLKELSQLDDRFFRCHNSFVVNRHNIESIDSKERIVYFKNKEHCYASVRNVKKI
Test: Inhibition of Staphylococcus aureus RN6390B Agr-mediated RNA3 promoter activation measured up to 6 hrs by Northern blot analysis

## CCCCCCCCCC(=O)CC(=O)N[C@H]1CCOC1=O
  IC50: 6 µM

Reference: BindingDB's records for doi:10.1021/jm3014635 (University of Nottingham, 2013)
